Data as given in US10494380B2, “Nitrogen-containing tricyclic derivatives having HIV replication inhibitory activity” (priority 2015, dated 2019).

What was measured:
Assay type in all cases: cell-based
HIV = conditions: EC50 in the presence of human serum (25%) versus without human serum, MT-4 cells
Outline: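 Compound is preincubated 1 h at room temperature with human serum, or with medium alone as the serum-free control. MT-4 cells infected with HIV (1 h, 37° C) are added and cultured 4 days. EC50 is determined with and without serum; their ratio gives the potency shift.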

[1] = system: T125A mutant virus (HIV-1 NL-432 recombinant molecular clone, IN gene); assay: HIV replication inhibition assay against integrase 124/125 mutant virus (Test Example 2); conditions: Human immunodeficiency virus 1, MT4, read-out: EC50 against T125A mutant virus, T125A mutant virus (HIV-1 NL-432 IN gene), MT-4 cells, MTT
Outline: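 MT-4 cells (2.5×10^4 per well) infected with 60 pfu of 293T-derived HIV-1 NL-432 clone carrying integrase 124/125 point mutations, in presence of compound, cultured 4 days at 37 °C. Viability by MTT formazan at 560/690 nm; EC50 = concentration inhibiting 50% of virus-induced cytotoxicity.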

HIV (HTLV-IIIB strain) = assay: HIV replication inhibition assay (Test Example 1; MT-4 cells, MTT); conditions: Human immunodeficiency virus 1, MT4, 96 h, HIV (HTLV-IIIB strain), MT-4 cells, MTT, four days; for EC50: read-out: EC50; for EC90: read-out: EC90
Protocol: HIV (HTLV-IIIB strain) persistent infected human T cell strain Molt-4 clone8 was cultured in RPMI-1640 medium supplemented with 10% fetal bovine serum and the supernatant was filtered, then the virus titer was measured and stored at −80° C. Each anti-human immunodeficiency virus active substance was diluted with the above culture medium to the designated concentration, which was dispensed into 96-well microtiter plate by 50 μL. Next, 100 μL of MT-4 cell suspension (2.5×10^4 cells) was dispensed into each well, then 50 μl of the above HIV-containing supernatant diluted with the above culture medium was added thereto (60 pfu (plaque forming unit)).
Cell mixture was cultured at 37° C. in CO2 incubator for four days, then 30 μL of MTT (3-(4,5-dimethylthiazole-2-yl)-2,5-diphenyltetrazolyum bromide) reagent (5 mg/mL in PBS) was added to all wells followed by incubation for 1 hour. In this step, MTT was reduced to insoluble formazan in living cells. To elute generated formazan 150 μL of the culture supernatant was removed from all wells, then 150 μL of cell lysis solution (10% Triton X-100 and 0.4% (v/v)-HCl containing isopropanol) was added thereto, followed by shaking with a plate mixer. The formazan was measured with micro plate reader at OD: 560 nm and 690 nm (reference wavelength) and the result was compared with the reference wells. EC50 and EC90 mean the compound concentration at which cytotoxicity caused by virus infection is inhibited 50% and 90%, respectively.

Compound	Potency shift value (HIV)	EC50 [1] [µM]	EC50 (HIV (HTLV-IIIB strain)) [µM]	EC90 (HIV (HTLV-IIIB strain)) [µM]
Cc1ccc(-c2c([C@H](OC(C)(C)C)C(=O)O)c(C)c3c4c2cc(C)n4CCN3C)c(O)c1 (mixture of isomers) [Compound I-245]	12	0.063	0.027	0.042
Cc1ccc(-c2c([C@H](OC(C)(C)C)C(=O)O)c(C)c3c4c2c(Cl)c(C)n4CCN3C)cc1 [Compound I-002]		0.021	0.0022	0.0035
Cc1ccc(-c2c([C@H](OC(C)(C)C)C(=O)O)c(C)c3c4c2ccn4CCN3C)cc1 [Compound I-004]		0.048	0.0041	0.006
Cc1ccc(-c2c([C@H](OC(C)(C)C)C(=O)O)c(C)c3c4c2cc(COCc2ccccc2)n4CCN3C)cc1 [Compound I-005]	7.8		0.031	0.046
Cc1ccc(-c2c([C@H](OC(C)(C)C)C(=O)O)c(C)c3c4c2cc(C(F)(F)F)n4CCN3C)cc1 [Compound I-007]	49	0.018	0.002	0.0036
CCN1CCn2c(C)cc3c(-c4ccc(C)cc4)c([C@H](OC(C)(C)C)C(=O)O)c(C)c1c32 [Compound I-009]	38	0.014	0.00098	0.0016
COCc1cc2c(-c3ccc(C)cc3)c([C@H](OC(C)(C)C)C(=O)O)c(C)c3c2n1CCN3C [Compound I-011]	21		0.016	0.024
CCCc1cc2c(-c3ccc(C)cc3)c([C@H](OC(C)(C)C)C(=O)O)c(C)c3c2n1CCN3C [Compound I-013]	49		0.0097	0.015
CC(=O)N1CCn2c(C)cc3c(-c4ccc(C)cc4)c([C@H](OC(C)(C)C)C(=O)O)c(C)c1c32 [Compound I-014]	8.7	0.015	0.0016	0.0022
Cc1ccc(-c2c([C@H](OC(C)(C)C)C(=O)O)c(C)c3c4c2cc(C)n4CCN3)cc1 [Compound I-015]	11		0.027	0.04
Cc1c([C@H](OC(C)(C)C)C(=O)O)c(-c2ccc(Cl)cc2)c2cc(C)n3c2c1NC(=O)C3 [Compound I-016]	8.6	0.042	0.0087	0.013
Cc1c([C@H](OC(C)(C)C)C(=O)O)c(-c2ccc(Cl)cc2)c2cc(C)n3c2c1N(C(=O)CN(C)C)CC3 [Compound I-017]	4.5	0.094	0.02	0.031
CNCC(=O)N1CCn2c(C)cc3c(-c4ccc(Cl)cc4)c([C@H](OC(C)(C)C)C(=O)O)c(C)c1c32 [Compound I-018]	6.8		0.083	0.1
Cc1ccc(-c2c([C@H](OC(C)(C)C)C(=O)O)c(C)c3c4c2cc(C)n4CC(=O)N3C)cc1 [Compound I-020]	41		0.0095	0.012
Cc1ccc(-c2c([C@H](OC(C)(C)C)C(=O)O)c(C)c3c4c2cc(C)n4CCN3CCO)cc1 [Compound I-021]	5.4	0.022	0.0052	0.0075
Cc1ccc(-c2c([C@H](OC(C)(C)C)C(=O)O)c(C)c3c4c2cc(CO)n4CCN3C)cc1 [Compound I-022]	4.5		0.017	0.025
CCS(=O)(=O)N1CCn2c(C)cc3c(-c4ccc(Cl)cc4)c([C@H](OC(C)(C)C)C(=O)O)c(C)c1c32 [Compound I-023]	12	0.0055	0.001	0.0026
